Assay results as given in PMC9182007, “Statistical Methods in the Study of Protein Binding and Its Relationship to Drug Bioavailability in Breast Milk” (Molecules, 2022).
Where two headings read alike, the source gives them in different places.

Tests used:
[1] = target: T1, human serum albumin (HSA) (Homo sapiens, UniProt P02768); settings: for kHSA: Table S9, external group; for log kHSA: human, immobilized hsa column
[2] = target: T2, bovine serum albumin (BSA) (Bos taurus, UniProt P02769); test: NP TLC on plates impregnated with bovine serum albumin; format: binding; settings: for NP (Rf, BSA-impregnated NP plate): Table S3, NP plate impregnated with 2 mg/mL BSA, pH 7.4 mobile phase; for NP (Rf value from the NP plate impregnated with 2 mg/mL BSA solution): Table S8, external group
T2 construct: purchased Sigma Aldrich
T2 sequence (P02769 25-607): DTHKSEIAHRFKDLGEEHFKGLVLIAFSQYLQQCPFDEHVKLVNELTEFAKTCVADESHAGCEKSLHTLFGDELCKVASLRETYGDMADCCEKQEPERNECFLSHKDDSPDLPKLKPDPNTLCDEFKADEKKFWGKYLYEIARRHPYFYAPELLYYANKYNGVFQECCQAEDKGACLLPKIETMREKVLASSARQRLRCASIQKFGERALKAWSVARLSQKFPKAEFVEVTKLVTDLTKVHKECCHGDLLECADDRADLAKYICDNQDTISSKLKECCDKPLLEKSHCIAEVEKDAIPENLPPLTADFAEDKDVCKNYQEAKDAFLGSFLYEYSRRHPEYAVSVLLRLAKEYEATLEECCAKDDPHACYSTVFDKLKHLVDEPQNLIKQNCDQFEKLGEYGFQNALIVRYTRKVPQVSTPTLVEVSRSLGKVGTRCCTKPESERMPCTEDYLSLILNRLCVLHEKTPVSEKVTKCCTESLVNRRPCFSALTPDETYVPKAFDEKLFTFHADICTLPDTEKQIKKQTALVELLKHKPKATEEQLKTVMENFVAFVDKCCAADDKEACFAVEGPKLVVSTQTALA

[3] = target: T1, human serum albumin (HSA); test: in vitro; settings: immobilized hsa column, pH 7.4
plasma protein = settings: ref DrugBank [7], cited from earlier work
[4] = ref DrugBank [7], cited from earlier work
[5] = RP TLC on non-impregnated control plates; format: physicochemical; settings: Table S4, non-impregnated RP plate; acetonitrile/acetate buffer pH 7.4/methanol 60:20:20
[6] = NP TLC on non-impregnated control plates; format: physicochemical; settings: for CNP (Rf, control NP plate): Table S3, non-impregnated NP plate, acetonitrile/acetate buffer pH 7.4/methanol 60:20:20; for CNP (Rf value from the non-impregnated NP plate, control): Table S8, external group
[7] = target: T2, bovine serum albumin (BSA); test: RP TLC on plates impregnated with bovine serum albumin; format: binding; settings: for RP (Rf, BSA-impregnated RP plate): Table S4, RP plate impregnated with 2 mg/mL BSA, pH 7.4 mobile phase
Text: Chromatographic descriptors were obtained in experiments, thin layer chromatography in normal (NP TLC) and reversed mode (RP TLC). The stationary phase was modified with bovine serum albumin (BSA). TLC was the source of retention factor (Rf) values, denoted in statistical models as NP and RP.
For TLC chromatography, glass plates 20 × 20 cm from Merck, covered with silica gel with the addition of a fluorescent indicator, were used. Normal phase (NP) plates were used with standard Merck TLC Silica gel 60 F254 plates, while in reverse phase (RP) silanized plates RP-2: Merck TLC Silica gel 60 RP-2 F254 were used.
The stationary phase of the plates, both NP and RP, was modified with an aqueous solution of bovine serum albumin purchased from Sigma Aldrich (bovine serum albumin, lyophilized powder).
The impregnation of the plates was carried out with a 2 mg/mL solution applied to the surface using a Desaga SG 1 hand sprayer; the plates were then air dried. […] Normal and reversed phase thin layer chromatography (NP TLC and RP TLC respectively) was performed using silica-gel-coated glass plates. Half of them were covered with 2 mg/mL bovine serum albumin solution and half remained pure.
The mobility of the compounds was also determined on the plates with no protein as a modifier. […] The acetate buffer (20 mM) was prepared by dissolving 1.54 g of ammonium acetate in 1 L of distilled water. The pH was then adjusted with a concentrated ammonia solution using a pH meter. The plates were developed in standard, vertical chromatographic chambers, each time using 100 mL of the mobile phase, after the chamber was previously saturated with solvent vapors for approximately 1 h.
The unfolded-protein-impregnated plates and the control plates were scanned with a Desaga CD 60 densitometer. The values of the delay factor (Rf) were collected, i.e., the ratio of the distance traveled by the substance to be analyzed to the distance traveled through the front of the mobile phase. […] The experiment was repeated (for both BSA-coated and control plates) and the Rf values pooled are the mean of both series of experiments.

[8] = HPLC on immobilized artificial membrane column (HPLCIAM); format: physicochemical; settings: for log k IAM: Table S5, IAM column, pH 7.4; for k IAM: Table S5, retention factor, IAM column, phosphate buffer pH 7.4/acetonitrile 80:20; for kIAM / log kIAM: Table S9, external group
[9] = Table S6, external group (n = 38); cited from earlier work
[10] = Table S5, retention factor, HSA column, pH 7.4, 25 degrees Celsius
[11] = Table S1, plasma protein binding given as fraction
[12] = Table S6, external group (n = 38), given as fraction
[13] = Table S6, external group, coded 1/0

T1 sequence (P02768 25-609): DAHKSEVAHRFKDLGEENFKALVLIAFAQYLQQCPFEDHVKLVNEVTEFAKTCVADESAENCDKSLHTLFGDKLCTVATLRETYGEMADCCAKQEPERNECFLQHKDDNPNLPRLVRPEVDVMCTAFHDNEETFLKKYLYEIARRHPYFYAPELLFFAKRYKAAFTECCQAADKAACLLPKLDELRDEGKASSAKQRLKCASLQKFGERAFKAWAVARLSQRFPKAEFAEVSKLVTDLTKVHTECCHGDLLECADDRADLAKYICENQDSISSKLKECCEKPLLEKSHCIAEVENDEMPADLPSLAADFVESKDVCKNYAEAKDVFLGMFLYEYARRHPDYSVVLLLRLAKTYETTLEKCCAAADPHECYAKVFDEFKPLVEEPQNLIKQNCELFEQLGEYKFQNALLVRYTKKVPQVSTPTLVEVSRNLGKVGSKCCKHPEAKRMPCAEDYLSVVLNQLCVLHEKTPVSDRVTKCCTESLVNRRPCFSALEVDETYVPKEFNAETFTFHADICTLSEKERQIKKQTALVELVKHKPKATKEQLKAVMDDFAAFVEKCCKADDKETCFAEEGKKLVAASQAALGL

SMILES	k HSA [1, 10]	NP (Rf, BSA-impregnated NP plate) [2]	chromatographic logD [3]	PB (plasma protein; [11])	CNS+/- ([4]; Table S1, coded 1/0)	CRP (Rf, control RP plate) [5]	CNP (Rf, control NP plate) [6]	RP (Rf, BSA-impregnated RP plate) [7]	log k IAM [8]	k IAM [8]	further results
CC[C@H]1OC(=O)[C@H](C)[C@@H](O[C@H]2C[C@@](C)(OC)[C@@H](O)[C@H](C)O2)[C@H](C)[C@@H](O[C@@H]2O[C@H](C)C[C@H](N(C)C)[C@H]2O)[C@](C)(O)C[C@@H](C)CN(C)[C@H](C)[C@@H](O)[C@]1(C)O [azithromycin]	0.23	0.63	-0.64	0.29	0	0.24	0.63	0.24	-1.20	0.06	
CCOCCn1c(C2CCN(CCc3ccc(C(C)(C)C(=O)O)cc3)CC2)nc2ccccc21 [bilastine]	0.67	0.44	-0.17	0.87		0.76	0.46	0.72	-0.26	0.55	
O=C1CN=C(c2ccccn2)c2cc(Br)ccc2N1 [bromazepam]		0.90	-0.2	0.7	1	0.83	0.87	0.81	0.34	2.21	k HSA ([1]; pH 7.4): 0.63
COc1ccccc1OCCNCC(O)COc1cccc2[nH]c3ccccc3c12 (stereo not shown) [carvedilol]	14.5	0.9	1.16	0.98	0		0.73				
CO/N=C(\C(=O)N[C@@H]1C(=O)N2C(C(=O)O)=C(COC(N)=O)CS[C@H]12)c1ccco1 [cefuroxime]	0.23	0.98	-0.64	0.5	0	0.88	0.97	0.87	0.23	1.69	
CCN(CC)C(=O)Nc1ccc(OCC(O)CNC(C)(C)C)c(C(C)=O)c1 (stereo not shown) [celiprolol]	1.12	0.46	0.05	0.275		0.75	0.45	0.79	0.77	5.87	
CN1CCC(=C2c3ccccc3C=Cc3ccccc32)CC1 [cyproheptadine]	9.7	0.43	0.99	0.975	1	0.45	0.45	0.47	1.38	23.79	
CN1C[C@H](C(=O)N[C@]2(C)O[C@@]3(O)[C@@H]4CCCN4C(=O)[C@H](Cc4ccccc4)N3C2=O)C[C@@H]2c3cccc4[nH]cc(c34)C[C@H]21 [dihydroergotamine]		0.75	-0.64	0.93	0	0.78	0.72	0.78			k HSA ([1]; pH 7.4): 0.23
CN(C)CCC=C1c2ccccc2COc2ccccc21 [doxepin]											kHSA [1]: 4.25; log kHSA ([1]; pH 7.4): 0.63; NP (Rf value from the NP plate impregnated with 2 mg/mL BSA solution) [2]: 0.31; PB (plasma protein; [12]): 0.76; CNS+/- [4, 13]: 1; CNP (Rf value from the non-impregnated NP plate, control) [6]: 0.30; RP (Rf value from the RP plate impregnated with 2 mg/mL BSA solution) ([7]; Table S8, external group): 0.54; kIAM [8]: 2.81; log kIAM [8]: 0.45; M/P [9]: 1.37
CN1CCC[C@@H]1Cc1c[nH]c2ccc(CCS(=O)(=O)c3ccccc3)cc12 [eletriptan]											kHSA [1]: 3.78; log kHSA ([1]; pH 7.4): 0.58; CNS+/- [4, 13]: 1; kIAM [8]: 3.57; log kIAM [8]: 0.55; M/P [9]: 0.25
COC(=O)[C@@H]1CC2=CC(=O)CC[C@]2(C)[C@@]23O[C@@H]2C[C@@]2(C)[C@@H](CC[C@@]24CCC(=O)O4)[C@H]13 [eplerenone]	0.21	0.94	-0.68	0.5	1	0.84	0.94	0.85	0.19	1.54	
NC(N)=Nc1nc(CSCCC(N)=NS(N)(=O)=O)cs1 [famotidine]	0.99	0.71	0			0.98	0.70	0.99			
Cc1ccc(S(=O)(=O)NC(=O)NN2CC3CCCC3C2)cc1 (stereo not shown) [gliclazide]	9.69	0.95	0.99	0.94	1	0.83	0.95	0.80	-0.55	0.28	
CN1CCC(=C2c3ccccc3CC(=O)c3sccc32)CC1 [ketotifen]	5.83	0.36	0.77	0.75	1	0.75	0.34	0.74	1.34	22.04	
CN(C)C(=O)C(CCN1CCC(O)(c2ccc(Cl)cc2)CC1)(c1ccccc1)c1ccccc1 [loperamide]		0.67	0.65			0.75	0.68	0.77			k HSA ([1]; pH 7.4): 4.47
CN1CCN=C(c2ccccc2)c2cc(Cl)ccc21 [medazepam]		0.94	1.25			0.66	0.91	0.65	1.54	34.65	k HSA ([1]; pH 7.4): 17.86
OC(CNCC(O)C1CCc2cc(F)ccc2O1)C1CCc2cc(F)ccc2O1 (stereo not shown) [nebivolol]	7.49	0.75	0.87	0.98	1	0.40	0.75	0.40			
CC(C)c1nc(N(C)S(C)(=O)=O)nc(-c2ccc(F)cc2)c1/C=C/[C@@H](O)C[C@@H](O)CC(=O)O [rosuvastatin]	1.96	0.89	0.29		0	0.92	0.9	0.88	-0.02	0.96	
Cc1cncc(CN2CCC(=C3c4ccc(Cl)cc4CCc4cccnc43)CC2)c1 [rupatadine]	12.38	0.43	1.09	0.985		0.55	0.42	0.52	0.97	9.29	
CCCc1nn(C)c2c(=O)[nH]c(-c3cc(S(=O)(=O)N4CCN(C)CC4)ccc3OCC)nc12 [sildenafil]	1.62	0.67	0.21	0.96	1	0.77	0.69	0.76	1.15	14.26	
CC(=O)S[C@@H]1CC2=CC(=O)CC[C@]2(C)[C@H]2CC[C@@]3(C)[C@@H](CC[C@@]34CCC(=O)O4)[C@H]12 [spironolactone]	0.82	0.96	-0.09	0.9		0.78	0.98	0.77	1.13	13.38	
CCS(=O)(=O)CCn1c([N+](=O)[O-])cnc1C [tinidazole]			-0.92								kHSA [1]: 0.12; NP (Rf value from the NP plate impregnated with 2 mg/mL BSA solution) [2]: 0.88; PB (plasma protein; [12]): 0.12; CNP (Rf value from the non-impregnated NP plate, control) [6]: 0.89; kIAM [8]: 2.00; log kIAM [8]: 0.30
